# From US20240077498A1, “METHOD OF DIAGNOSING AND TREATING NONALCOHOLIC FATTY LIVER DISEASE AND NONALCOHOLIC STEATOHEPATITIS” (Board of Supervisors of Louisiana State University and …, priority 2020, published 2024)
# Entries after “also recorded” stand apart in the source; their conditions may differ.
# Tests used:
# SLAMF 1 = experiment: Palmitic acid treatment of human hepatocytes in culture, SLAMF1 protein by western blot and immunofluorescence; type: cell-based; conditions: for SLAMF1 level normalized to Tubulin, relative to control: western blot, n=3; for SLAMF 1 protein levels by immunofluorescence staining: palmitic acid vs vehicle
# Procedure: Hepatocytes were treated with two different doses of palmitic acid (0.4 and 0.8 mM). […] The 0.4 mM dose has a SLAMF1 level of 2.3 times the control level. The 0.8 mM dose has a SLAMF1 level of 5.8 times the control level. […] Representative immunofluorescence staining of hepatocytes treated with vehicle (left panel) or palmitic acid (right panel). Caveolin antibody (red, to label the membrane of the cells), SLAMF 1 antibody (green) and the nuclear marker DAPI (blue). Protein levels of SLAMF 1 are elevated in response to palmitic acid (right panel). The data represents n=4 samples per group. All samples were a courtesy of Pathology Department. All pictures were acquired on a Leica TCS SP5 Spectral Confocal Microscope equipped with a ×40 (oil) objective.
# HepG2 cells = experiment: Palmitic acid lipotoxicity in HepG2 cells (MTT, lactate dehydrogenase, AnV cytometry, cleaved caspase 3 p17 western blot); type: cell-based, human; conditions: PA 24 h
# SLAMF1 = SLAMF1 expression in PA treated HepG2 cells (immunocytochemistry, Western blot, q-PCR, conditioned medium); type: cell-based, human; conditions: for SLAMF1 mRNA (q-PCR) / SLAMF1 protein (immunocytochemistry, Western blot): HepG2 cells, PA 24 h
# Excerpt: FIGS. 7A-7C show SLAMF1 increases in PA treated HepG2 cells.
# Non-alcoholic fatty liver disease (NAFLD) is one of the most common forms of chronic liver disease. NAFLD's initial phase involves hepatic steatosis (triglyceride accumulation in hepatocytes). NAFLD can rapidly progress to non-alcoholic steatohepatitis (NASH). NASH is characterized by increased oxidative stress, lipid peroxidation, inflammation, mitochondria dysfunction, and hepatocyte death and fibrosis. If untreated, NASH leads to cirrhosis, and in some cases, hepatocellular carcinoma. […] Therefore, it is critical to understand the mechanisms responsible for NAFLD progression to NASH to develop efficient therapies and find disease progression biomarkers. Signaling lymphocytic activation molecule 1 (SLAMF1) protein is a self-ligand receptor involved in regulating the immune response to viruses and cancer. In the present disclosure, the inventors discovered that hepatocytes from NASH liver samples from humans and mice express high levels of SLAMF1. To confirm these findings, the inventors used palmitic acid-treated HepG2 hepatocytes as an “in vitro” model of NASH. […] Based on the inventors' experimental results, SLAMF1 may be used as both a therapeutic and a diagnostic target (including soluble form) for NAFLD and NASH.
# Referring to FIGS. 6A-8E, the involvement of SLAMF1 in the progression of NASH was explored in human hepatocarcinoma cells HepG2.
structure (smiles),measurement,setting,value
CCCCCCCCCCCCCCCC(=O)O [palmitic acid],"SLAMF1 level normalized to Tubulin, relative to control",SLAMF 1; 0.4 mM palmitic acid,2.3 times the control level
same,"SLAMF1 level normalized to Tubulin, relative to control",SLAMF 1; 0.8 mM palmitic acid,5.8 times the control level
same,SLAMF 1 protein levels,SLAMF 1; 0.4 and 0.8 mM palmitic acid,dose dependent increase
same,SLAMF 1 protein levels by immunofluorescence staining,SLAMF 1; n=4,significant increase in SLAMF1 levels
same,SLAMF 1 protein levels by immunofluorescence staining,"SLAMF 1; n=4, listed as Palmitic acid",elevated
same,"apoptosis (AnV by cytometry, cleaved caspase 3 p17 by western blot)",HepG2 cells,induced apoptosis
same,cell viability (MTT),HepG2 cells,reduces cell viability
same,cytotoxicity (Lactate dehydrogenase activity in conditioned medium),HepG2 cells,increases cytotoxicity
same,SLAMF1 mRNA (q-PCR),SLAMF1,significant increases
same,"SLAMF1 protein (immunocytochemistry, Western blot)",SLAMF1,significant increases
same,SLAMF1 mRNA (q-PCR),SLAMF1; listed as PA,increases
same,"SLAMF1 protein (immunocytochemistry, Western blot)",SLAMF1; listed as PA,increases SLAMF1 protein
same,SLAMF1 in culture/conditioned medium,SLAMF1; palmitic acid-treated hepatocytes,secrete SLAMF1 in the culture medium; also recorded: increases SLAMF1 both in cells and conditioned medium
